Source: US11440870B2, “Cannabidiolic acid esters compositions and uses thereof” (Yissum Research Development Company of the Hebrew …, priority 2017, dated 2022)

Test system: anxiety-like responding in rats
Assay: Light-dark box emergence test after foot shock stress (anxiety-like responding)
Assay type: in vivo, male Sprague-Dawley rats
Conditions: for Time spent in the light box after foot shock (FS) stress vs No FS: 0.01 μg·kg−1 i.p., 45 min before 5 min test, 24 h after FS
Excerpt: Animal procedures complied with the Canadian Council on Animal Care, and the protocols were approved by the Institutional Animal Care Committee at University of Guelph. Animal studies are reported in compliance with the ARRIVE guidelines (Kilkenny et al., 2010; McGrath and Lilley, 2015). A total of 200 näive male Sprague-Dawley rats, obtained from Charles River Laboratories (St Constant, Quebec), were used for all in vivo studies. Rats were individually housed (for acute nausea studies) or pair-housed [for anticipatory nausea and light-dark emergence studies] in home cages made of opaque white plastic (48×26×20 cm), containing bed-o-cob bedding from Harlan Laboratories, Inc. (Mississauga, Ontario), a brown paper towel, and Crinkl'Nest™ from The Andersons, Inc. (Maumee, Ohio). Additionally, in the home cage, rats were provided with a soft white paper container that was 14 cm long and 12 cm in diameter. All rats were subjected to an ambient temperature of 21° C. and a 12/12 h light-dark schedule (lights off at 07:00 h) and maintained on food (Highland Rat Chow [8640]) and water ad libitum. For the acute and anticipatory nausea studies, their body weights ranged from 263 to 329 g on the day of conditioning. For the light-dark emergence studies, their body weights ranged from 320 to 387 g on the day of test.
For the in vivo experiment 3, anxiolytic-like responding was evaluated using the light-dark emergence apparatus, which consisted of an opaque white plastic rectangular box that was divided into two compartments: a small (25 cm wide×20.5 cm long×20.5 cm high) enclosed dark box built of opaque black plastic with a door (8 cm wide×10 cm high) leading to a larger (39.5 cm long×25 cm wide) open lit box. The open lit box was illuminated by one lamp (with a 60 W bulb, 180 lux in the light chamber) positioned 115 cm above the center of the lit box. A video camera was mounted over the top of the light-dark box, and the video tapes were analyzed by the Ethovision software (Noldus Information Technology, Leesburg, Va., USA) for the duration of time spent in the light box for the 5 min test. For the foot shock (FS) session, the rats were placed in sound attenuating MED Associates fear conditioning chambers (St. Albans, Vt., USA). The 6 min FS session consisted of six 0.8 mA foot shocks delivered 1 min apart. Each 0.5 s shock was preceded by a 30 s auditory tone (90 Db, 5000 Hz) as described by Bluett et al. (2014).
The effect of CBDA and HU-580 on anxiety-like responding was evaluated using the light-dark box emergence test following either foot shock stress or no foot shock (No FS) stress. […]

C=C(C)[C@@H]1CCC(C)=C[C@H]1c1c(O)cc(CCCCC)c(C(=O)O)c1O [CBDA, Cannabidiolic acid]
Time spent in the light box after foot shock (FS) stress vs No FS: spent less time in the light box following FS stress than following No FS stress

C=C(C)[C@@H]1CCC(C)=C[C@H]1c1c(O)cc(CCCCC)c(C(=O)OC)c1O [HU-580, Cannabidiolic Acid Methyl Ester]
Time spent in the light box after foot shock (FS) stress vs No FS: reversed the effect of FS
Time spent in the light box after foot shock (FS) stress vs No FS, with 5-HT1A antagonist pretreatment (WAY100635 15 min before 0.01 μg·kg−1 HU-580 i.p., P=0.05): spent less time in the light box following FS stress than following No FS stress
